Results on three compounds are retold here after patent publication US8163803B2 (Fundação Oswaldo Cruz—FIOCRUZ, priority 2004, dated 2012).

Molecules are shown by their SMILES.

The test system of series [1] is isolated ileum of an experimental animal. The experiment in a line: Anaphylactic contraction of isolated ileum induced by antigen (ovoalbumin). As to conditions: antigen (10 μg/ml), average ±SEM, at least 3 animals; read-out: Stimulation with antigen IC50. As for the experimental part: Female and male experimental animals were used, weighing between 300 and 400 g, they came from Oswaldo Cruz Foundation's Center of Laboratory Animal Raising. The procedures involving the animals were examined and approved by Oswaldo Cruz Foundation's Committee of Animal Ethics (CEUA-FIOCRUZ, Licenca no. 00085-02). The animals were sensitized through a subcutanous injection with a mixture of 50 μg ovoalbumin and 5 mg Al(OH)3. From fourteen to thirty days after the sensitization, the experimental, animal was sacrificed in a chamber of carbonic gas to have its abdomen open and the location of the ileocecal valve. At this point, the intestine was sectioned and a segment of the small intestine, about 20 cm (equivalent to the ileum) was carefully removed and internally washed with a warmed solution (37° C.) of Tyrode (Composition in mM) (NaCl 137; KCl 2.7; NaH2PO4 0.42; NaHCO3 11.9; MgCl2 0.5; CaCl2 1.8; glucose 5.6) to remove the fecal content. […].
About 3-cm ileum fragments were vertically mounted in 10 ml glass cuvettes, immersed in Tyrode's solution at 37° C., aerated with carbogen (O2, 95% and CO2, 5%) and supplemented with atropine according to the standard procedure. The tissue had one of its ends tied to a rod while the other end was coupled with a transductor after the transference from the rod to the cuvette. The contractions were isotonically registered (basal tension of 1 g) with the support of a transductor of displacement-force connected to a computerized system to capture data. After a 30 minute period of balance, each segment was repeatedly stimulated by histamine (1 μM) until response stabilization. To induce anaphylatic contraction, ileum segments from sensitized experimental animals were stimulated by ovoalbumin (10 μg/ml). […]. The results were presented as a percentage of inhibition calculated in relation to the contractive effect obtained from stimulated and non-treated preparations.
Concentration-response data were adjusted through non-linear regression curves with the assistence of a graphics software (GraphPad Prism, USA). The concentration of an antagonist needed to inhibit the contractive response to inhibit the contractive response after stimulation by histamine or antigen at 50% (IC50) was used to compare the anti-spasmodic potency. The values expressed as an average ± standard error of the mean and statistically analysed through the test of analysis variance (ANOVA), followed by the Newman-Keuls-Student test.

Series [2] concerns cutaneous sites of the dorsal region of adult Wistar rats. The series can be described thus: Local anesthetic activity, intradermal injection in dorsal skin, response to mechanical stimulation. Type of series: in vivo. As to conditions: for time of anesthesia compared with lidocaine: doses from 0.5 to 4 μMol/site. As for the experimental part: Female and male Wistar rats, weighing between 200 and 250 g, they came from Oswaldo Cruz Foundation's Center of Laboratory Animal Raising were used. The procedures involving the animals were examined and approved by Oswaldo Cruz Foundation's Committee of Animal Ethics (CEUA-FIOCRUZ, License number 00085-02). After brief anesthesia by exposure to the atmosphere enriched with […] animals were trichotomized dorsal region, where the […] injections with substances for test were performed; doses varied from 0.5 to 4 μMol/site, and vehicule (NaCl 0.9%) (negative control), the final volume was 50 μl. Each animal took six injections and four animals were used for each tested substance. The application points were mechanically estimulated with a tweezer in order to evaluate the integrity of sensitiveness. The site was considered not to be anesthesized whenever after the mechanical stimulation it was observed a local retraction of the skin, according to what had been previously reported. The evaluations began 10 minutes after intradermal injections had been taken, which continued every five minutes until it was obtained the cutaneous retraction response. The values (average±standard error of the mean, SEM) were expressed in terms of “Time of Anesthesia” in minutes.

For the next series, the system named is eosinophils of rats. The series can be described thus: Cytosolic calcium increase in eosinophils stimulated with PAF (Fura 2-AM). Type of series: cell-based, Wistar rats. As to conditions: PAF (1 μM); for inhibition of citosolic calcium increase compared with lidocaine: 5 min pre-incubation. As for the experimental part: Female and male Wistar rats were used, weighing between 200 and 250 g, they came from Oswaldo Cruz Foundation's Center of Laboratory Animal Raising. The procedures involving the animals were examined and approved by Oswaldo Cruz Foundation's Committee of Animal Ethics (CEUA-FIOCRUZ, Licenca no. 00085-02).
The animals were sacrificed in a chamber of CO2 and a population of cells containing 10-15% eosinophils were recovered from the peritoneal cavity after washing the same with 20 ml Hanks, as previously described. After centrifugation, the cellular sediment was resuspended and the leukocytes subtypes (mononuclear cells, eosinophils and mast cells) separated in a discontinuous gradient of Percoll (double layer) centrifugated at 400×g for 25 minutes. The eosinophils (85-95% purity) were recovered in the interface 56%-72%, washed in RPMi medium to eliminate residue of Percoll and related. The total cells isolated was obtained after the dilution of a sample in Türk liquid and couting in Neubauer chamber with the assistance of direct-light microscopy. The populational purity analysis was done by direct-light microscopy in cytocentrifugates dyed with May-Grunwald-Giemsa.
The eosinophils (1×10^7/ml) were loaded with 3 μM Fura 2-AM as described, washed in PBS enriched with 0.1% BSA, and resuspended in a final concentration of 0.5×10^6/ml PBS containing 0.25% BSA, HEPES and glucose ([…]). Alíquotas de células (1.5 ml) were dispensed in quartz cuvettes and balanced with 1 mM calcium at 37° C. for 10 minutes before being used. Fluorescence changes were measured by fluorometer Shimatzu (model RF 1501) as previously described. The calculus of free calcium was derived from the fluorescence spectrum (wave length of excitation, 340 and 380 nm; emission 510 nm) according to the method established. The values were represented as percentage of inhibition in relation to group control. […]
The values were expressed as an average± standard error of the mean and statistically analyzed through the test of variance analysis (ANOVA), followed by the Newman-Keuls-Student test.

In the next series the test system is Swiss 44 mice. The series can be described thus: Convulsivant activity after intraperitoneal injection. In kind it is in vivo. Here is the method: Female and male Swiss 44 mice were used, weighing between 25 and 30 g, they came from Oswaldo Cruz Foundation's Center of Laboratory Animal Raising. The procedures involving the animals were examined and approved by Oswaldo Cruz Foundation's Committee of Animal Ethics (CEUA-FIOCRUZ, Act 00085-02). […] For each molecule, the necessary dose to induce a convulsive clinical Figure in 50% of the animals (DE50) was determined by linear regressive curves interpoled (GraphPad Prim, version 3.03).

[3] abbreviates: intraperitoneal, 15 minutes after injection, 10 mice per dose.

For orientation: IC50 means the midpoint of a concentration-inhibition curve. For the compound `CCN(CC)CC(=O)Nc1c(C)cccc1C` [Lidocaine, 1-(2-(dyethylamine)N-dymethylfenyl)-acetamide, reference compound], the IC50 in series [1] was 1430 ± 90 µM. The “Time of Anesthesia” value in series [2] (4 μMol/site intradermal, n=4, average±SEM) was determined as 168 ± 3 min. In addition, the “blocking of the increase of citosolic calcium” value with eosinophils of rats (highest concentration (1 mM), Average±SEM, n=8) was found to be 47±2%. For the same compound, the “percentage of injected animals led to convulsion” value with Swiss 44 mice (80 mg/Kg intraperitoneal) was 100%. The “DE50, dose to induce convulsion in 50% of the animals” value (from here on “DE50, dose … in 50% of the animals”) with Swiss 44 mice (setting [3]) is 62 mg/kg.
As to `CCN(CC)CC(=O)Nc1cccc(C)c1C` [JM23-1, 2-dyethylamine-2′,3′-acetoxylidide], the half-inhibitory concentration (IC50) in series [1] worked out at 330 µM. Also, the “time of anesthesia compared with lidocaine” value in series [2] is reported as “significantly inferior”. Moreover, in the series on eosinophils of rats, the “inhibition of citosolic calcium increase compared with lidocaine” value is listed as “equipotent to lidocaine”. Besides, the “DE50, dose … in 50% of the animals” value in the series on Swiss 44 mice (mouse, in vivo, ip) was determined as 154 mg/kg.
Consider `CCN(CC)CC(=O)Nc1ccc(C)cc1C` [JM24-1, 2-dyethylamine-2′,4′-acetoxylidide], for which the concentration for half-maximal inhibition (IC50) in series [1] came out at 190 ± 40 µM. In addition, in series [2], the “time of anesthesia compared with lidocaine” value is “significantly inferior”. For the same compound, the “inhibition of citosolic calcium increase compared with lidocaine” value in the series on eosinophils of rats was “so effective as lidocaine and JM23-1 in higher concentrations”. In the series with Swiss 44 mice (40-500 mg/Kg intraperitoneal), the “convulsivant activity compared with lidocaine” value was “noticeably inferior”. Further, the “DE50, dose … in 50% of the animals” value in the series with Swiss 44 mice (setting [3]) was determined as 230 mg/kg.
